How the values were obtained:
5-HT2B(h) = 5-HT2B(h) (Homo sapiens (Human), UniProt P41595); assay: Receptor binding assay, % inhibition of radioligand binding, 5-HT2B(h); settings: 30 micromolar GAL475; agonist radioligand; read-out: % inhibition of the binding of radioactively labelled ligand
Protocol: (§1) GAL475 (30 micromolar) was tested in multiple receptor binding assays. The binding was calculated as a % inhibition of the binding of a radioactively labelled ligand specific for each target.
(§2) However, the potency of GAL 475 at these receptors was lower than 1 micromolar and therefore not considered to be pharmacologically interesting. […] GAL475 was subsequently tested for PAM activity at the human NTS1 (FAST-0330I) and NTS2 (FAST-0331I) receptors, at 100-50,000 nanomolar concentrations. Agonist activity of GAL475 is expressed as a percentage of the activity of the reference agonist (Neurotensin) at its EC100 (maximal response) concentration. Antagonist activity of GAL475 is expressed as a percentage of the inhibition of reference agonist activity at its EC80 […] concentration. The assays were conducted with recombinant cell lines.

5-HT5a(h) = 5-HT5a(h) (Homo sapiens (Human), UniProt P47898); assay: Receptor binding assay, % inhibition of radioligand binding, 5-HT5a(h); settings: 30 micromolar GAL475; agonist radioligand; read-out: % inhibition of the binding of radioactively labelled ligand
Protocol: as §1, §2

5-HT7 (h) = 5-HT7 (h) (Homo sapiens (Human), UniProt P34969); assay: Receptor binding assay, % inhibition of radioligand binding, 5-HT7 (h); settings: 30 micromolar GAL475; agonist radioligand; read-out: % inhibition of the binding of radioactively labelled ligand
Protocol: as §1, §2

[1] = system: al adrenoreceptor (non-selective); assay: Receptor binding assay, % inhibition of radioligand binding, al adrenoreceptor (non-selective); settings: 30 micromolar GAL475; antagonist radioligand
Protocol: as §1, §2

Na+channel (site 2) = assay: Receptor binding assay, % inhibition of radioligand binding, Na+channel (site 2); settings: 30 micromolar GAL475; antagonist radioligand
Protocol: as §1, §2

human NTS1 = human NTS1 (Homo sapiens (Human), UniProt P30989); assay: Positive allosteric modulator (PAM) activity at human NTS1 (FAST-0330I), recombinant CHO-K1-mt aequorin cells; format: cell-based; settings: 100-50,000 nM
Description: as §2
(§3) GAL475 (100-50,000 nM) was tested for positive allosteric modulator (PAM) activity at the human NTS1 (FAST-0330I) and NTS2 (FAST-0331I) receptors (Tables 2 and 3).

human NTS2 = human NTS2 (Homo sapiens (Human), UniProt O95665); assay: Positive allosteric modulator (PAM) activity at human NTS2 (FAST-0331I), recombinant CHO-K1-mt aequorin cells; format: cell-based; settings: 100-50,000 nM
Description: as §2, §3

[2] = 28 days repeated oral dose with 14-days recovery in rats (body weight, food consumption, tolerability); format: in vivo, rat; settings: for overall body weight gain Day −1 to Day 28 compared to that of the controls: 80 mg/kg/day oral; for group mean body weight compared to the controls: >40 mg/kg/day oral, end of dosing phase (28 days)
Protocol: One hundred and forty-two (71/sex) rats were randomly assigned to 4 groups and given vehicle [2% (w/v) CMC-Na, 1% (v/v) Tween 80 in 0.1 M phosphate buffer at pH 7.4±0.2] or Gal-475*2HCl at 20, 40 or 80 mg/kg/day once daily for 28 days by the oral gavage route.

[3] = 28 day repeated oral dose with 14-day recovery in Beagle dogs (body weight gain, food consumption); format: in vivo, Beagle dog; settings: for decrease in food consumption / decrease in body weight gain: 7.5, 15, or 30 mg/kg/day oral; for decrease in food consumption: dosing phase; for decrease in body weight gain: dosing phase up to 28 days
Protocol: Thirty-two (16/sex) dogs were randomly assigned to 4 groups and orally administered vehicle (2% (w/v) CMC-Na, 1% (v/v) Tween 80 in 0.1 M phosphate buffer at pH 7.4) or Gal-475*2HCl at 7.5, 15, or 30 mg/kg/day once daily for up to 28 days.

[4] = Acute gastric emptying (charcoal slurry) in rats; format: in vivo, Sprague-Dawley rat; settings: 3 mg/kg IV
Protocol: Naive male Sprague-Dawley rats (239-297 g) were used to evaluate the effect on gastric emptying of a single dose of 3 mg/kg GAL-475 IV.
Rats were fasted 16-18 hours prior to the start of the experiment and then were given a bolus dose of either vehicle (1% tween-80 2% CMC) or GAL475 (3 mg/kg, IV) via the lateral tail vein. 5 minutes after dosing, rats were gavaged with a charcoal slurry (5 ml/kg, 10% charcoal in 2.5% Arabic gum from acacia tree) and then returned to their cages. 20 minutes after receiving the slurry, rats were euthanized using CO2. The stomachs were excised, weighed, emptied, washed and reweighed. Gastric content was calculated as the difference between full and empty weights. Increased gastric content was interpreted as a decrease in gastric emptying food retention).

[5] = Phase 1 single escalating oral dose study in healthy male volunteers (body weight, tolerability); format: in vivo, human
Protocol: The effects of an oral dose of GAL-475 (capsules of 450 mg) in 12 healthy male volunteers was tested in a Phase 1, randomized, placebo-controlled, double-blind, first in man single escalating dose study.
The study drug (GAL475) at 50, 150, 450 mg dosages, or placebo were administered on the morning of Day 1. Subjects fasted for 8 hours prior to the intake of study drug or placebo and for at least 4 hours following dosing.
The subject's body weight was measured on day −1 and at the follow up visit (day 7) using a validated balance. Body weight was recorded with 1 decimal.

[6] = oral gavage once daily 28 days, 20, 40, or 80 mg/kg/day
[7] = 450 mg single oral dose, day −1 to day 7

human NTS1, sequence (P30989 whole entry): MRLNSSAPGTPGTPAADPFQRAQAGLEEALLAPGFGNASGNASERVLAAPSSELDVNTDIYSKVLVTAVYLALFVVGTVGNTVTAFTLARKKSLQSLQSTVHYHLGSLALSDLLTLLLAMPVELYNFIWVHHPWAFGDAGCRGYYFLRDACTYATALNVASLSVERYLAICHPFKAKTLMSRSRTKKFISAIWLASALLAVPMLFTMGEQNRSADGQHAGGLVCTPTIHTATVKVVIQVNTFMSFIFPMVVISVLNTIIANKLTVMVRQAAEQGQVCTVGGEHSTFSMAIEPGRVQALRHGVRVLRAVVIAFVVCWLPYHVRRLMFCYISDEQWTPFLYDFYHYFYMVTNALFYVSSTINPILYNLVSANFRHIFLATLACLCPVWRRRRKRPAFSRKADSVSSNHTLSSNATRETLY
5-HT5a(h), sequence (P47898 whole entry, the tested form may be a part): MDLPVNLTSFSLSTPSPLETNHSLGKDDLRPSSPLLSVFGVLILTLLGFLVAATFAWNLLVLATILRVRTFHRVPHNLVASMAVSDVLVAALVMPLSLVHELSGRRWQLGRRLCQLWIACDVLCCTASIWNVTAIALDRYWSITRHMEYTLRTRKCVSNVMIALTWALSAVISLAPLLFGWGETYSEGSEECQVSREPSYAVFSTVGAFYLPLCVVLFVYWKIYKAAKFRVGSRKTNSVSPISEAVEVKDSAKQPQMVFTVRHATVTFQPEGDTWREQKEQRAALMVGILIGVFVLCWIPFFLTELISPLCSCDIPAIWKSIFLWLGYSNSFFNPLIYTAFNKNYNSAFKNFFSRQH
5-HT2B(h), sequence (P41595 whole entry, the tested form may be a part): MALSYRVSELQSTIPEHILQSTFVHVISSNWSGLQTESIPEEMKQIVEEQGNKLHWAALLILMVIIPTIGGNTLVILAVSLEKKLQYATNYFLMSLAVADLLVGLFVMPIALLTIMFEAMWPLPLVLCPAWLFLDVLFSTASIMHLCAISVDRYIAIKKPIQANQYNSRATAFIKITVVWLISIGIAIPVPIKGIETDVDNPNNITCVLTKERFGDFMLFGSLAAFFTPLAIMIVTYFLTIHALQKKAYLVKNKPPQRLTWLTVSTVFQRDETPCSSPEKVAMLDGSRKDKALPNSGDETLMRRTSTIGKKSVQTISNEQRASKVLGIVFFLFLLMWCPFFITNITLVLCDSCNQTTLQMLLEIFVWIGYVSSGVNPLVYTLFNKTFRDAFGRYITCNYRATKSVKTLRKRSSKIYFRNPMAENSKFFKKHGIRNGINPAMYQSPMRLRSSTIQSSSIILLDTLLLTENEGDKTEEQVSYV
5-HT7 (h), sequence (P34969 whole entry, the tested form may be a part): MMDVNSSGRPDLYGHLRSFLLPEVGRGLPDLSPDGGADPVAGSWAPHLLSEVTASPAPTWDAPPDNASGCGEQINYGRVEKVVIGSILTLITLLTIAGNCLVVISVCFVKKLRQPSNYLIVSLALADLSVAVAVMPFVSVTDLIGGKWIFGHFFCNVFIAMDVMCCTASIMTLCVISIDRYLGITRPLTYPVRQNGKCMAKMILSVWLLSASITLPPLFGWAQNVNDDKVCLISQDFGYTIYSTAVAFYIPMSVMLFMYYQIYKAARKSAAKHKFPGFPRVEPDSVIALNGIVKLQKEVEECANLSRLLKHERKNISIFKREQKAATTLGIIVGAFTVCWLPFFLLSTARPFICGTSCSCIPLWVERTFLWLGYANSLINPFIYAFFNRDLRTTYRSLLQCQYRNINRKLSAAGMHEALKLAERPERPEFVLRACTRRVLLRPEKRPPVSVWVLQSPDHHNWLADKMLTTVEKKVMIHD
human NTS2, sequence (O95665 whole entry): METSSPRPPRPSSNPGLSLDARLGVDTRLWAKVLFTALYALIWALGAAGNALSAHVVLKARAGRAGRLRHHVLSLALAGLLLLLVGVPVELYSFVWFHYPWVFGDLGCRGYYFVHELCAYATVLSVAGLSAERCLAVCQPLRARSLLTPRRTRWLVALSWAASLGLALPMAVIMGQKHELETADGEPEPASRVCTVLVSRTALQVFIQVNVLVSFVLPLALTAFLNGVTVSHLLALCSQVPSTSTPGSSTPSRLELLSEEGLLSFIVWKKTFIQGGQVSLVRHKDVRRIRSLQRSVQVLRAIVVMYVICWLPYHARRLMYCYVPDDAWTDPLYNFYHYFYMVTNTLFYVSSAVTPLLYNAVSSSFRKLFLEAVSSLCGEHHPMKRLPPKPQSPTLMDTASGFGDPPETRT

## CCCNc1nc(NC)nc2c(NCC(C)(C)O)nc(NC)nc12 [GAL475, 1-(2,6-Bis-methylamino-8-propylamino-pyrimido[5,4-d]pyrimidin-4-ylamino)-2-methyl-propan-2-ol]
5-HT2B(h)
  inhibition at 30 µM: 75%
5-HT5a(h)
  inhibition at 30 µM: 50.6%
5-HT7 (h)
  inhibition at 30 µM: 79%
[1]
  % inhibition of the binding of radioactively labelled ligand: 67.1%
Na+channel (site 2)
  % inhibition of the binding of radioactively labelled ligand: 75.1%
Human NTS1
  Hill Coefficient: 11.62
Human NTS1; CHO-K1-mt aequorin
  % Activation Average at maximal concentration: 26.48%
  EC50: 355 nM
Human NTS2
  % Activation Average at maximal concentration: 0.21%
[2]; 40 mg/Kg body weight per day, 28 days
  weight loss compared to vehicle: meaningful weight loss
[2]; 80 mg/kg/day, 2 weeks recovery phase
  body weight gain during recovery phase compared to controls: comparable or greater body weight gain
[2]; both sexes, >40 mg/kg/day, dosing phase
  group mean food consumption compared with control group: significant reduced
[2]; end of recovery phase
  food intake at the end of recovery phase: reversed
[2]; females
  overall body weight gain Day −1 to Day 28 compared to that of the controls: 79%
  group mean body weight compared to the controls: −4.70%
[2]; males
  overall body weight gain Day −1 to Day 28 compared to that of the controls: 71%
  group mean body weight compared to the controls: −7.35%
[2]; [6]
  test article-related adverse effects in clinical signs, food consumption, clinical pathology, or pathology: no test article-related adverse effects
  tolerability: well tolerated
[3]; 28 days
  decrease in body weight compared to vehicle: 25%
  food consumption compared to vehicle: dramatic decrease
[4]; p<0.05
  gastric emptying compared to vehicle: significantly decreased
[4]; up to 25 minutes after administration
  gastric content retention higher compared to vehicle controls: up to 105%
[5]; 50 mg single oral dose
  subjects with mild headaches on the day of capsule intake: 2 of the 6
[5]; 150 mg single oral dose
  subjects with mild headaches on the day of capsule intake: 0 of the 6
[5]; 450 mg single oral dose
  subjects with mild headaches on the day of capsule intake: 5 of the 6
[5]; [7]
  change in body weight, average: -0.6 kg
  change in body weight, range: −0.1 to −1.6 kg
[5]; single oral dose 50, 150, 450 mg
  tolerability: well tolerated except for mild headaches

## CCCNc1nc(NC)nc2c(NCC(C)(C)O)nc(NC)nc12.Cl.Cl [Gal-475*2HCl, 1-(2,6-Bis-methylamino-8-propylamino-pyrimido[5,4-d]pyrimidin-4-ylamino)-2-methyl-propan-2-ol bis hydrochloride]
[3]; females
  decrease in food consumption: ≤ 98%
  decrease in body weight gain: ≤ 29.9%
[3]; males
  decrease in food consumption: up to 81%
  decrease in body weight gain: up to 22.7%
[3]; recovery phase
  body weight gain and food consumption during the recovery phase: comparable with the control
